The results in this text go back to US11058671B2, “Formulations and methods of manufacturing formulations for use in colonic evacuation” (RedHill Biopharma Ltd., priority 2012, dated 2021).

Structures are written as SMILES.

The data set in a line: Excipient compatibility study (colour change / ascorbic acid degradation). It counts as physicochemical. The settings on record: presence of metallic cations (such as Cu2+, Fe3+, Zn2+). On the procedure: Excipient compatibility studies with all excipients against Na picosulfate and ascorbic acid were carried out. Antioxidants like Na meta-bisulphite, Na bisulphite and Na sulphite were added. Further, the study was carried out to determine if citric acid helped stabilize the colour change of ascorbic acid. Samples were assessed at 1 week, 2 weeks, 4 weeks and at 8 weeks.
Tertiary mixtures with components (250 mg MgO+500 mg AA+25 mg Sulphites (or 100 mg Acids) • MgO+ascorbic acid+Na meta-sulphite • MgO+ascorbic acid+Na bisulphite • MgO+ascorbic acid+Na sulphite • MgO+ascorbic acid+citric acid • MgO+ascorbic acid+tartaric acid • MgO+sodium ascorbate+Na meta-sulphite • MgO+sodium ascorbate+Na bisulphite • MgO+sodium ascorbate+Na sulphite • MgO+sodium ascorbate+citric acid • MgO+sodium ascorbate+tartaric acid Quaternary mixtures with components ((250 m, MgO+500 mg AA+20 mg NaP+25 Sulphites (or 100 mg acids) • MgO+Na picosulfate+ascorbic acid+Na meta-sulphite • MgO+Na picosulfate+ascorbic acid+Na bisulphite • MgO+Na picosulfate+ascorbic acid+Na sulphite • MgO+Na picosulfate+ascorbic acid+citric acid • MgO+Na Picosulfate+ascorbic acid+tartaric acid
Binary, tertiary and quaternary mixtures of the API and excipients at various ratios were prepared as follows: • 1. […] Add approximately half of the excipient quantity into a container. • 3. […]

Regarding `O=C1O[C@H]([C@@H](O)CO)C(O)=C1O` [ascorbic acid], the “Degradation of ascorbic acid with excipients” value is given as “degrades in the presence of metallic cations”.
